Values of other authors, collected in patent US8808722B2, “Stable antiseptic compositions and methods” (3M Innovative Properties Company, priority 2010, dated 2014).

Settings: at 25° C.

SMILES: II [elemental iodine, iodine]
- solubility in water: 0.03 wt-%
